Consider 64 compounds from a melting point compilation (Tetko et al.; mined from patent text by program, amines drawn as free bases though some values may be those of a salt).

In general, melting point refers to the temperature, or range, at which the solid turns liquid.

On to `CC(C)c1cccc(CCCO)c1NC(=O)CC1c2ccccc2Oc2ccccc21`, for which the melting point lay within 218 to 219 °C. With `CC(C)(C)OC(=O)N1CCC(O)(CS(N)(=O)=O)CC1` the figure was 176 to 180 °C. The result for `O=CNNc1ccc(NC(=S)Nc2ccccc2)cc1` reads 188 °C. Turning to `Cc1ccccc1-c1cc(N2CCOCC2)ncc1N(C)C(=O)C(C)(C)c1cc(C(F)(F)F)cc(C(F)(F)F)c1`, the melting point lay within 129 to 130 °C. The result for `CC(CCCCCCC(=O)O)C1CCC2C3CCC4CC(O)CCC4(C)C3CC(O)C12C` (centres undefined) reads 182 to 185 °C. The result for `CNC(=O)c1cccc(NC(=O)COc2cccc3ccccc23)c1` reads 194 °C. The result for `O=C(O)c1cc(F)c(O)nc1Nc1ccc(F)cc1` reads 216 to 217 °C; that for `O=C(NCc1ccc(F)cc1)c1nc2n(c(=O)c1OCc1ccccc1)CCN2c1ccccc1`, 199 to 200 °C. As to `CNC(=O)c1c(I)c(C#N)c(I)c(C(=O)OCC(O)CO)c1I` (centres undefined), the melting point is 117 to 120 °C.

Consider `CS(=O)(=O)Nc1cc(OC[C@@H](O)CNC2CCN(c3ccc(C#N)cc3)CC2)ccc1O`, for which the melting point lay within 78 to 80 °C. With `Cc1nc(-c2cnn(-c3c(Cl)cc(C(F)(F)F)cc3Cl)n2)[nH]c1S(=O)(=O)Cl` the figure was 254 to 255 °C; with `COC(=O)CCCCCCC(C(=O)OC)S(C)(=O)=O` (centres undefined), 47 to 48 °C.

On to `c1ccn(Nc2ccncc2)c1`, for which the melting point came out at 150 °C. With `c1ccc(C(c2ccccc2)N2CCN(CCCOc3ccc4nncn4n3)CC2)cc1`, the melting point was in the range of 132 to 134 °C. The result for `N#Cc1n[nH]c(N)c1SC(F)(F)F` reads 187 °C.

`CN(O)C(=O)C=Cc1cccc(Oc2ccccc2)c1` yielded a melting point of 124 to 125 °C.

`O=C(O)CN1CCCC(n2nc(-c3c(-c4ccccc4)nn4ccccc34)ccc2=O)C1=O` (centres undefined) gave a melting point of 145 to 150 °C. The result for `CC1CC(=O)NN=C1c1ccc2c(c1)CCN2` (centres undefined) reads 187 to 189 °C.

With `COc1ccc(Nc2cc(=O)n(-c3ccc(Cl)cc3)nc2-c2nc[nH]n2)cc1`, the melting point fell in the range of 251 to 252 °C. For the compound `CSC1C(=O)Nc2c(Oc3ccccc3N)cccc21` (centres undefined), the melting point lay within 168 to 170 °C.

In turn, `Cc1cc([N+](=O)[O-])ccc1N1CCOCC1=O` had a melting point of 113 to 114 °C. The compound `CNC1=Nc2sc(Cl)cc2C(c2ccccc2)=NC1` returned a melting point of 247 to 250 °C.

Compound `O=c1oc2ccccc2cc1S(=O)(=O)Cc1ccc(Cl)cc1Cl` yielded a melting point of 228 to 229 °C. Take `CN(Cc1cc(C(F)(F)F)cc(C(F)(F)F)c1)C(=O)c1oc(=O)c2ccc(Cl)cc2c1-c1ccccc1`: the melting point fell in the range of 170 to 171 °C. The result for `O=C(NCC1CCc2n[nH]cc2C1)[C@@H]1CCCN1C(=O)[C@@H](CC1CCCCC1)NS(=O)(=O)Cc1ccccc1` (some centres undefined) reads 100 to 103 °C. With `NC(=O)N(O)[C@H]1CC[C@@H](Sc2ccccc2)C1` (relative stereo) the figure was 146 to 148 °C; with `COC(=O)c1cccc(C(=O)N(C)C)n1`, 90 to 92 °C; with `O=C(Nc1ccccc1C(=O)NCc1ccccc1)N[C@@H](Cc1ccc(NC(=O)c2c(Cl)cccc2Cl)cc1)C(=O)O`, 165 °C. `C=CCN(CC(=O)OC(C)(C)C)c1c(N)c(=O)c1=O` had a melting point of 175 to 176 °C. With `CCOC(=O)c1ccc(N)cc1Br` the figure was 93 °C; with `O=C(c1ccc(F)cc1)c1cccc(C(=O)c2ccc(F)cc2)c1`, 178 °C. With `CS(=O)(=O)c1ccc(C(CC2CCCC2)C(=O)Nc2nccs2)cc1[N+](=O)[O-]` (centres undefined) the figure was 121 to 124 °C. The result for `O=C1C(c2cc(OCc3ccccc3)ccc2O)c2ccccc2N1Cc1ccc(Cl)s1` (centres undefined) reads 173 to 175 °C; that for `C#CCc1c(C)nc2c(NCc3c(C)cccc3NC(=S)NC(=O)c3ccccc3)cccn12`, 165 to 166 °C. Regarding `CCC(C)n1c(=O)nc(SC)[nH]c1=O` (centres undefined), the melting point was 134 to 136 °C. For `COC(=O)CC1CCCC2CC(=O)N(OCC(=O)C(CC(=O)O)NC(=O)OCc3ccccc3)C12` (centres undefined), the melting point lay in the range of 55 to 58 °C. With `CC(C)Cn1c(CC(C)O)nc2c(N)nc3ccccc3c21` (centres undefined) the figure was 196 to 198 °C; with `CCOC(=O)NNc1ccc(N(C)CC(C)O)nn1` (centres undefined), 150 to 152 °C. The compound `CCCCCCn1ccc(=O)c(OCc2ccccc2)c1C` gave a melting point of 46 °C.

Turning to `CCOC(=O)c1c(Cl)nc(-c2cccc([N+](=O)[O-])c2)c([N+](=O)[O-])c1C(=O)OCC`, the melting point was 90 to 91 °C.

As to `CCOC(=O)C1=C(NC(=O)Nc2cc(C(=O)OC(C)C)c(Cl)cc2F)CCCC1`, the melting point lay in the range of 129 to 130 °C. The result for `NS(=O)(=O)c1cc(C(=O)O)cc(NCc2ccccc2)c1-c1ccccc1` reads 221 to 222 °C. With `NC(=S)Nc1nncs1` the figure was 253 °C; with `CCC1(Cl)Cc2cc(OCC(=O)OC)c(Cl)c(Cl)c2C1=O` (centres undefined), 111 °C; with `O=C(O)c1ccc(CCC(=O)c2ccccc2)cc1`, 145 to 147 °C.

As for `CC(=O)NCCCc1ccc(Cl)c2c1CCO2`, the melting point was in the range of 76 to 78 °C. With `CCCCCCCCCCc1ccc(CO)cc1` the figure was 39 to 40 °C; with `O=[N+]([O-])c1cnn2c1-c1ccccc1NC2C=Cc1ccccc1` (centres undefined), 171 to 173 °C. The result for `CC(=O)OC(C)c1nc2c(C(F)(F)F)cccc2c(O)c1C(=O)Nc1nccs1` (centres undefined) reads 262 °C; that for `Cc1cc(NC(=O)NC(=O)c2c(Cl)cccc2Cl)cnc1-c1ccccc1`, 202 to 205 °C.

Consider `Cc1ccccc1OCc1ccccc1N`, for which the melting point is 56 °C.

`O=c1oc(=O)n(CC2CC2)c2ccccc12`: the melting point lay within 118 to 121 °C. With `O=C1C2CC(O)CCN2C(=O)N1c1ncc(Cl)cc1F` (centres undefined) the figure was 183 to 185 °C; with `OC1CCN(c2nc(-c3ccccc3)nc3ccccc23)C1` (centres undefined), 180 to 182 °C. With `CCOC(=O)c1cc2sc(C)c(N(C)S(=O)(=O)c3cccs3)c2[nH]1` the figure was 161 °C. With `COc1ccc(OC[C@@H](O)CNCCc2ccc(NC3SC(=O)NC3=O)cc2)cc1` (some centres undefined) the figure was 60 °C; with `CC(CN1CCCC1)N1c2ccc(Cl)cc2Sc2ccc(C3=NC4CCCCC4N3)cc21` (racemic), 120 °C. In the case of `O=C(c1ccccc1)c1cc(Cl)ccc1C#CCN1C(=O)c2ccccc2C1=O`, the melting point was in the range of 130 to 133 °C. For the compound `CCN(CC)C(=O)C(C)n1cc(C)c(-c2ccccc2)n1` (centres undefined), the melting point was 55 to 57 °C.

`CC(C)(C)OC(=O)n1[nH]c(=O)c2ccccc21`: the melting point amounted to 145 °C. `CCC1(C)CN(c2c(F)cc3c(=O)c(C(=O)O)cn(C4CC4)c3c2OC)CCC1N` (centres undefined) returned a melting point of 152 to 154 °C.

The compound `CCOc1cc(OCC)nc(N2CCN(Cc3ccc(CNC(C)=O)cc3)CC2)n1` returned a melting point of 119 to 120 °C. The compound `FC(F)(F)c1ccc2nc3c(nc2c1)-c1cccc2cccc-3c12` displayed a melting point of 185 to 186 °C.

For the compound `COc1ccc2c3c(c(=O)oc2c1)CN(Cc1ccc([N+](=O)[O-])cc1)CC3`, the melting point lay in the range of 176 to 178 °C.
